Laboratory results taken from patent US20250230193A1, “CYCLIC COMPOUND HAVING SELECTIVE KRAS INHIBITORY EFFECT ON HRAS AND NRAS” (CHUGAI SEIYAKU KABUSHIKI KAISHA, priority 2022, published 2025).

Tests used:
[1] = target: GDP-bound NRAS wild-type protein (Homo sapiens, UniProt P01111); assay: Binding to NRAS by surface plasmon resonance (SPR), Single Cycle Kinetics; conditions: KD ratio, GDP-bound NRAS wild-type vs GDP-bound KRAS wild-type, SPR
[2] = target: GDP-bound HRAS wild-type protein (Homo sapiens, UniProt P01112); assay: Binding to HRAS by surface plasmon resonance (SPR), Single Cycle Kinetics; conditions: KD ratio, GDP-bound HRAS wild-type vs GDP-bound KRAS wild-type, SPR
Chain of GDP-bound HRAS wild-type protein (P01112 whole entry): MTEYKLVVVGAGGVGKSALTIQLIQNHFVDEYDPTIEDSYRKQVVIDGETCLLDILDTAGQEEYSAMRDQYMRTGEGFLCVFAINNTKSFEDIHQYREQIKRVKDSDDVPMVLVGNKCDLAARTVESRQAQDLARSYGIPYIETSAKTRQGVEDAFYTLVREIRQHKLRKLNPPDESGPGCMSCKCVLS

Chain of GDP-bound NRAS wild-type protein (P01111 whole entry): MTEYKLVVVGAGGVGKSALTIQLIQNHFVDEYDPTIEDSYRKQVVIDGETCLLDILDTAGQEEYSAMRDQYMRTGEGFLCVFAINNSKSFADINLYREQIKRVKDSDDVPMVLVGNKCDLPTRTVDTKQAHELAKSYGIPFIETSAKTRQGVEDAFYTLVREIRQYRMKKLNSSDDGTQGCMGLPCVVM

SMILES | NRAS/KRAS (ratio of KD value with respect to NRAS to KD value with respect to KRAS) [1] | HRAS/KRAS (ratio of KD value with respect to HRAS to KD value with respect to KRAS) [2]
CCO[C@@H]1C[C@H]2C(=O)NC3(CCC3)C(=O)N(C)[C@@H](C3CCCC3)C(=O)N(C)[C@H](C(=O)N3CCOCC3)CC(=O)N(C)[C@@H](CC(C)C)C(=O)N[C@@H]([C@@H](C)CC)C(=O)N(C)CC(=O)N(C)[C@H]3CCCCCN(C3=O)[C@@H](Cc3ccc(F)cc3OC)C(=O)N(C)CC(=O)N[C@@H](CCc3cc(F)c(C(F)(F)F)c(F)c3)C(=O)N2C1 [PP0924] | B (a compound having 3 or more and less than 10 is denoted as B) | B (a compound having 3 or more and less than 10 is denoted as B)
CCO[C@@H]1C[C@H]2C(=O)NC3(CCC3)C(=O)N(C)[C@@H](C3CCCC3)C(=O)N(C)[C@H](C(=O)N3CCOCC3)CC(=O)N(C)[C@@H](Cc3ccccc3F)C(=O)N[C@@H]([C@@H](C)CC)C(=O)N(C)CC(=O)N(C)[C@H]3CCCCCN(C3=O)[C@@H](Cc3ccc(C(F)(F)F)cc3)C(=O)N(C)CC(=O)N[C@@H](CCc3cc(F)c(C(F)(F)F)c(F)c3)C(=O)N2C1 [PP0926] | B (a compound having 3 or more and less than 10 is denoted as B) | B (a compound having 3 or more and less than 10 is denoted as B)
CCO[C@@H]1C[C@H]2C(=O)NC3(CCC3)C(=O)N(C)[C@@H](C3CCCC3)C(=O)N(C)[C@H](C(=O)N3CCOCC3)CC(=O)N(C)[C@@H](Cc3ccc(F)c(F)c3)C(=O)N[C@@H]([C@@H](C)CC)C(=O)N(C)CC(=O)N(C)[C@H]3CCCCCN(C3=O)[C@@H](Cc3ccc(C(F)(F)F)cc3)C(=O)N(C)CC(=O)N[C@@H](CCc3cc(F)c(C(F)(F)F)c(F)c3)C(=O)N2C1 [PP0928] | A (a compound having 10 or more and less than 20 is denoted as A) | B (a compound having 3 or more and less than 10 is denoted as B)
CCO[C@@H]1C[C@H]2C(=O)NC3(CCC3)C(=O)N(C)[C@@H](C3CCCC3)C(=O)N(C)[C@H](C(=O)N3CCOCC3)CC(=O)N(C)[C@@H](Cc3ccccc3Cl)C(=O)N[C@@H]([C@@H](C)CC)C(=O)N(C)CC(=O)N(C)[C@H]3CCCCCN(C3=O)[C@@H](Cc3ccc(C(F)(F)F)cc3)C(=O)N(C)CC(=O)N[C@@H](CCc3cc(F)c(C(F)(F)F)c(F)c3)C(=O)N2C1 [PP0929] | A (a compound having 10 or more and less than 20 is denoted as A) | B (a compound having 3 or more and less than 10 is denoted as B)
CCO[C@@H]1C[C@H]2C(=O)NC3(CCC3)C(=O)N(C)[C@@H](C3CCCC3)C(=O)N(C)[C@H](C(=O)N3CCOCC3)CC(=O)N(C)[C@@H](Cc3ccccc3C)C(=O)N[C@@H]([C@@H](C)CC)C(=O)N(C)CC(=O)N(C)[C@H]3CCCCCN(C3=O)[C@@H](Cc3ccc(C(F)(F)F)cc3)C(=O)N(C)CC(=O)N[C@@H](CCc3cc(F)c(C(F)(F)F)c(F)c3)C(=O)N2C1 [PP0931] | A (a compound having 10 or more and less than 20 is denoted as A) | B (a compound having 3 or more and less than 10 is denoted as B)
CCO[C@@H]1C[C@H]2C(=O)NC3(CCC3)C(=O)N(C)[C@@H](C3CCCC3)C(=O)N(C)[C@H](C(=O)N3CCOCC3)CC(=O)N(C)[C@@H](Cc3cccc(C)c3)C(=O)N[C@@H]([C@@H](C)CC)C(=O)N(C)CC(=O)N(C)[C@H]3CCCCCN(C3=O)[C@@H](Cc3ccc(C(F)(F)F)cc3)C(=O)N(C)CC(=O)N[C@@H](CCc3cc(F)c(C(F)(F)F)c(F)c3)C(=O)N2C1 [PP0932] | B (a compound having 3 or more and less than 10 is denoted as B) | B (a compound having 3 or more and less than 10 is denoted as B)
CCO[C@@H]1C[C@H]2C(=O)NC3(CCC3)C(=O)N(C)[C@@H](C3CCCC3)C(=O)N(C)[C@H](C(=O)N3CCOCC3)CC(=O)N(C)[C@@H](Cc3ccc(C)cc3)C(=O)N[C@@H]([C@@H](C)CC)C(=O)N(C)CC(=O)N(C)[C@H]3CCCCCN(C3=O)[C@@H](Cc3ccc(C(F)(F)F)cc3)C(=O)N(C)CC(=O)N[C@@H](CCc3cc(F)c(C(F)(F)F)c(F)c3)C(=O)N2C1 [PP0933] | A (a compound having 10 or more and less than 20 is denoted as A) | B (a compound having 3 or more and less than 10 is denoted as B)
CCO[C@@H]1C[C@H]2C(=O)NC3(CCC3)C(=O)N(C)[C@@H](C3CCCC3)C(=O)N(C)[C@H](C(=O)N(C)C)CC(=O)N(C)[C@@H](Cc3ccccc3F)C(=O)N[C@@H]([C@@H](C)CC)C(=O)N(C)CC(=O)N(C)[C@H]3CCCCCN(C3=O)[C@@H](Cc3ccc(C(F)(F)F)cc3)C(=O)N(C)CC(=O)N[C@@H](CCc3cc(F)c(C(F)(F)F)c(F)c3)C(=O)N2C1 [PP0934] | B (a compound having 3 or more and less than 10 is denoted as B) | B (a compound having 3 or more and less than 10 is denoted as B)
CCO[C@@H]1C[C@H]2C(=O)NC3(CCC3)C(=O)N(C)[C@@H](C3CCCC3)C(=O)N(C)[C@H](C(=O)N(C)C)CC(=O)N(C)[C@@H](Cc3cccc(F)c3)C(=O)N[C@@H]([C@@H](C)CC)C(=O)N(C)CC(=O)N(C)[C@H]3CCCCCN(C3=O)[C@@H](Cc3ccc(C(F)(F)F)cc3)C(=O)N(C)CC(=O)N[C@@H](CCc3cc(F)c(C(F)(F)F)c(F)c3)C(=O)N2C1 [PP0935] | B (a compound having 3 or more and less than 10 is denoted as B) | B (a compound having 3 or more and less than 10 is denoted as B)
CCO[C@@H]1C[C@H]2C(=O)NC3(CCC3)C(=O)N(C)[C@@H](C3CCCC3)C(=O)N(C)[C@H](C(=O)N(C)C)CC(=O)N(C)[C@@H](Cc3ccc(F)cc3)C(=O)N[C@@H]([C@@H](C)CC)C(=O)N(C)CC(=O)N(C)[C@H]3CCCCCN(C3=O)[C@@H](Cc3ccc(C(F)(F)F)cc3)C(=O)N(C)CC(=O)N[C@@H](CCc3cc(F)c(C(F)(F)F)c(F)c3)C(=O)N2C1 [PP0936] | B (a compound having 3 or more and less than 10 is denoted as B) | B (a compound having 3 or more and less than 10 is denoted as B)
CCO[C@@H]1C[C@H]2C(=O)NC3(CCC3)C(=O)N(C)[C@@H](C3CCCC3)C(=O)N(C)[C@H](C(=O)N(C)C)CC(=O)N(C)[C@@H](Cc3ccc(F)c(F)c3)C(=O)N[C@@H]([C@@H](C)CC)C(=O)N(C)CC(=O)N(C)[C@H]3CCCCCN(C3=O)[C@@H](Cc3ccc(C(F)(F)F)cc3)C(=O)N(C)CC(=O)N[C@@H](CCc3cc(F)c(C(F)(F)F)c(F)c3)C(=O)N2C1 [PP0937] | B (a compound having 3 or more and less than 10 is denoted as B) | B (a compound having 3 or more and less than 10 is denoted as B)
CCO[C@@H]1C[C@H]2C(=O)NC3(CCC3)C(=O)N(C)[C@@H](C3CCCC3)C(=O)N(C)[C@H](C(=O)N(C)C)CC(=O)N(C)[C@@H](Cc3cccc(Cl)c3)C(=O)N[C@@H]([C@@H](C)CC)C(=O)N(C)CC(=O)N(C)[C@H]3CCCCCN(C3=O)[C@@H](Cc3ccc(C(F)(F)F)cc3)C(=O)N(C)CC(=O)N[C@@H](CCc3cc(F)c(C(F)(F)F)c(F)c3)C(=O)N2C1 [PP0939] | B (a compound having 3 or more and less than 10 is denoted as B) | B (a compound having 3 or more and less than 10 is denoted as B)
CCO[C@@H]1C[C@H]2C(=O)NC3(CCC3)C(=O)N(C)[C@@H](C3CCCC3)C(=O)N(C)[C@H](C(=O)N(C)C)CC(=O)N(C)[C@@H](Cc3ccc(Cl)cc3)C(=O)N[C@@H]([C@@H](C)CC)C(=O)N(C)CC(=O)N(C)[C@H]3CCCCCN(C3=O)[C@@H](Cc3ccc(C(F)(F)F)cc3)C(=O)N(C)CC(=O)N[C@@H](CCc3cc(F)c(C(F)(F)F)c(F)c3)C(=O)N2C1 [PP0940] | B (a compound having 3 or more and less than 10 is denoted as B) | C (A compound having a KD ratio of 0.1 or more and less than 3 is denoted as C)
CCO[C@@H]1C[C@H]2C(=O)NC3(CCC3)C(=O)N(C)[C@@H](C3CCCC3)C(=O)N(C)[C@H](C(=O)N(C)C)CC(=O)N(C)[C@@H](Cc3ccccc3C)C(=O)N[C@@H]([C@@H](C)CC)C(=O)N(C)CC(=O)N(C)[C@H]3CCCCCN(C3=O)[C@@H](Cc3ccc(C(F)(F)F)cc3)C(=O)N(C)CC(=O)N[C@@H](CCc3cc(F)c(C(F)(F)F)c(F)c3)C(=O)N2C1 [PP0941] | B (a compound having 3 or more and less than 10 is denoted as B) | B (a compound having 3 or more and less than 10 is denoted as B)
CCO[C@@H]1C[C@H]2C(=O)NC3(CCC3)C(=O)N(C)[C@@H](C3CCCC3)C(=O)N(C)[C@H](C(=O)N(C)C)CC(=O)N(C)[C@@H](Cc3cccc(C)c3)C(=O)N[C@@H]([C@@H](C)CC)C(=O)N(C)CC(=O)N(C)[C@H]3CCCCCN(C3=O)[C@@H](Cc3ccc(C(F)(F)F)cc3)C(=O)N(C)CC(=O)N[C@@H](CCc3cc(F)c(C(F)(F)F)c(F)c3)C(=O)N2C1 [PP0942] | B (a compound having 3 or more and less than 10 is denoted as B) | B (a compound having 3 or more and less than 10 is denoted as B)
CCO[C@@H]1C[C@H]2C(=O)NC3(CCC3)C(=O)N(C)[C@@H](C3CCCC3)C(=O)N(C)[C@H](C(=O)N(C)C)CC(=O)N(C)[C@@H](Cc3ccc(C)cc3)C(=O)N[C@@H]([C@@H](C)CC)C(=O)N(C)CC(=O)N(C)[C@H]3CCCCCN(C3=O)[C@@H](Cc3ccc(C(F)(F)F)cc3)C(=O)N(C)CC(=O)N[C@@H](CCc3cc(F)c(C(F)(F)F)c(F)c3)C(=O)N2C1 [PP0943] | B (a compound having 3 or more and less than 10 is denoted as B) | B (a compound having 3 or more and less than 10 is denoted as B)
